Test [1] has as its target T1, wild type HCV NS3/4A 1b protease enzyme (Hepatitis C virus genotype 1b, UniProt P26663).
T1 construct: 10× stocks of NS3/4A protease enzyme from Bioenza (Mountain View, Calif.); purchased Bioenza (Mountain View, Calif.)
The test can be described thus: HCV Protease FRET Assay (IC50_APP), wild type. The test is classed as biochemical.

For test [2], the target named is T2, R155K mutant of the HCV NS3/4A 1b protease enzyme (Hepatitis C virus genotype 1b, UniProt P26663, R1181K).
T2 construct: 10× stocks of NS3/4A protease enzyme from Bioenza (Mountain View, Calif.); purchased Bioenza (Mountain View, Calif.)
The test can be described thus: HCV Protease FRET Assay (IC50_APP), R155K mutant. The test is classed as biochemical. The procedure:
HCV Protease FRET Assay for WT and Mutated NS3/4A 1b Enzymes (IC50—APP).
The following protocol was used to generate “apparent” IC50 (IC50—APP) values as depicted in Table 6, below. […] 5 μL of each enzyme were added to Corning (#3575) 384-well, black, microtiter plates (Corning, N.Y.) after spotting a 0.5 μL volume of 50% DMSO and serially diluted compounds prepared in 50% DMSO. Protease reactions were immediately started after enzyme addition with the addition of 45 μL of the FRET substrate and monitored for 60-90 minutes at λex485/λem520 in a Synergy^4 plate reader from BioTek (Winooski, Vt.). At the conclusion of each assay, progress curves from each well were examined for linear reaction kinetics and fit statistics (R^2, 95% confidence intervals, absolute sum of squares).
The compound numbers correspond to the compound numbers in Table 3. […] ;

Test [3] relates to HCV RNA replicon in cell line ET (luc-ubi-neo/ET), human Huh7 hepatoma. The test can be described thus: Method A: HCV RNA replicon antiviral assay (luciferase, ET cell line). The test is classed as cell-based, Hepatitis C virus. Conditions: Hepatitis C virus, Huh-7, assay described in Example 22. Put shortly: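 Six 3-fold dilutions of each drug were tested on subconfluent luc-ubi-neo/ET Huh7 replicon cells (5×10^3/well) for 72 hr at 37 °C. EC50 and EC90 came from luciferase read-out, IC50 from CytoTox-1 cell number, and […]; interferon alpha-2b was run each time as control.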
For orientation: Replicon systems follow genome replication, usually without infectious particles.

The target in test [4] is T3, A156T mutant of the HCV NS3/4A 1b protease enzyme (Hepatitis C virus genotype 1b, UniProt P26663, A1182T).
T3 construct: 10× stocks of NS3/4A protease enzyme from Bioenza (Mountain View, Calif.); purchased Bioenza (Mountain View, Calif.)
Nature of the test: HCV Protease FRET Assay (IC50_APP), A156T mutant. Conditions: apparent IC50, A156T mutant; read-out: IC50_APP, HCV A156T. Type of test: biochemical.

The target of test [5] is T4, D168A mutant of the HCV NS3/4A 1b protease enzyme (Hepatitis C virus genotype 1b, UniProt P26663, D1194A).
T4 construct: 10× stocks of NS3/4A protease enzyme from Bioenza (Mountain View, Calif.); purchased Bioenza (Mountain View, Calif.)
Nature of the test: HCV Protease FRET Assay (IC50_APP), D168A mutant. Type of test: biochemical.

Test [6] deals with HCV RNA replicon in cell line ET (luc-ubi-neo/ET), human Huh7 hepatoma. The test can be described thus: Luciferase Assay (Example 35), replicon-derived luciferase activity. Type of test: cell-based. To be noted: Hepatitis C virus, Huh-7, assay described in Example 35. The procedure:
The compounds were assayed to evaluate the antiviral activity and cytotoxicity of compounds using replicon-derived luciferase activity. This assay used the cell line ET (luc-ubi-neo/ET), which is a human Huh7 hepatoma cell line that contains an HCV RNA replicon with a stable luciferase (Luc) reporter and cell culture-adaptive mutations. The ET cell line was grown in a 5% CO2 incubator at 37° C. in Dulbecco's modified essential media (DMEM) supplemented with 2 mM L-glutamine, nonessential amino acids, 100 U of penicillin/ml, 100 μg of streptomycin/mL, and 10% fetal bovine serum. G418 (Geneticin; Invitrogen) was added at a final concentration of 400 ug//mL.
All cell culture reagents were obtained from Invitrogen (Carlsbad). Cells were trypsinized (1% trypsin:EDTA) and plated out at 5×10^3 cells/well in white 96-well assay plates (Costar) dedicated to cell number (cytotoxicity) or antiviral activity assessments. Test compounds were added at six 3-fold concentrations each and the assay was run in DMEM, 5% FBS, 1% pen-strep, 1% glutamine, 1% non essential amino acid. Human interferon alpha-2b (PBL Biolabs, New Brunswick, N.J.) was included in each run as a positive control compound. Cells were processed 72 hr post test compound addition when the cells were still subconfluent. Antiviral activity was measured by analyzing replicon-derived luciferase activity using the Steady-Glo Luciferase Assay System (Promega, Madison, Wis.) according to manufacturer's instruction. The number of cells in each well was determined by Cell Titer Blue Assay (Promega). Compound profile was derived by calculating applicable EC50 (effective concentration inhibiting virus replication by 50%), EC90 (effective concentration inhibiting virus replication by 90%), IC50 (concentration decreasing cell viability by 50%) and SI50 (selective index: […]) values.

[7] abbreviates: apparent IC50, R155K mutant; read-out: IC50_APP, HCV R155K.
Where [8] appears, read: apparent IC50, D168A mutant; read-out: IC50_APP, HCV D168A.
The mark [9] stands for this setting: read-out: IC50_APP, WT, apparent IC50, wild type NS3/4A 1b.

Molecules are shown by their SMILES. Read-outs that look alike come from different tables or passages of the source.

The IC90 is the concentration at which the effect reaches the 90% level. A high value points to weaker potency. `C=CC(=O)NC[C@@H]1NC(=O)OCCC/C=C/c2ccc3ccnc(c3c2)O[C@@H]2C[C@@H](C(=O)N[C@]3(C(=O)NS(=O)(=O)C4CC4)C[C@H]3C=C)N(C2)C1=O` [Compound I-77, (1R,2S)-N-1-cyclopropylsulfonylcarboxamido-2-vinylcyclopropyl (2R,4S,7S,14E)-7-acrylamidomethyl-2H-16,18-etheno-2,5-methano-11H-pyrido[2,3-k][1,10,3,6]dioxadiazacyclononadecine-4-ylcarboxamide]: the IC50 was less than 10 nM in test [1]; 10 to 100 nM in test [2] (setting [7]); less than 10 nM in test [3] (read-out: Replicon (IC50)); 100 to 1000 nM in test [4]; 100 to 1000 nM in test [5] (setting [8]). For the same compound, in test [3] (IC90), the IC90 was in the range of 10 to 100 nM.

Broadly, the EC90 is the concentration at which the effect reaches the 90% level. Low values mean an effect from little substance, high ones a need for much substance. Broadly, the EC50 is the concentration giving half of the maximal effect. Low readings indicate higher potency in that assay, high ones lower potency in that assay. In the case of `C=C[C@@H]1C[C@]1(NC(=O)[C@@H]1C[C@@H](Oc2nccc3ccc(Br)cc23)CN1C(=O)[C@H](CCC(=O)/C(C)=C/C)NC(=O)OC(C)(C)C)C(=O)NS(=O)(=O)C1CC1` [Compound I-91, {1-[4-(7-Bromo-isoquinolin-1-yloxy)-2-(1-cyclopropanesulfonylaminocarbonyl-2-vinyl-cyclopropylcarbamoyl)-pyrrolidine-1-carbonyl]-5-methyl-4-oxo-hept-5-enyl}-carbamic acid tert-butyl ester], the IC50 is less than 10 nM in test [1] (setting [9]), 100 to 1000 nM in test [2] (setting [7]) and 1000 to 10000 nM in test [5] (setting [8]). Further, the 90% effect concentration (EC90) in test [6] fell in the range of 100 to 1000 nM. Besides, the concentration for a half-maximal effect (EC50) in test [6] fell in the range of 10 to 100 nM.

With `C=CC(=O)NC[C@H](NC(=O)OC(C)(C)C)C(=O)N1C[C@H](Oc2nccc3cc(OC)ccc23)C[C@H]1C(=O)N[C@]1(C(=O)NS(=O)(=O)C2CC2)C[C@H]1C=C` [Compound I-92, {1-(Acryloylamino-methyl)-2-[2-(1-cyclopropanesulfonylaminocarbonyl-2-vinyl-cyclopropylcarbamoyl)-4-(6-methoxy-isoquinolin-1-yloxy)-pyrrolidin-1-yl]-2-oxo-ethyl}-carbamic acid tert-butyl ester], the IC50 in test [1] (setting [9]) is less than 10 nM; in test [2] (setting [7]), 10 to 100 nM; in test [5] (setting [8]), 100 to 1000 nM. Moreover, the EC90 in test [6] fell in the range of 100 to 1000 nM. In test [6], this compound registered an EC50 of 10 to 100 nM.

With `C=C[C@@H]1C[C@]1(NC(=O)[C@@H]1C[C@@H](Oc2nccc3cc(OC)ccc23)CN1C(=O)[C@H](CCC(=O)/C(C)=C/C)NC(=O)OC(C)(C)C)C(=O)NS(=O)(=O)C1CC1` [Compound I-95, {1-[2-(1-Cyclopropanesulfonylaminocarbonyl-2-vinyl-cyclopropylcarbamoyl)-4-(6-methoxy-isoquinolin-1-yloxy)-pyrrolidine-1-carbonyl]-5-methyl-4-oxo-hept-5-enyl}-carbamic acid tert-butyl ester], the IC50 is less than 10 nM in test [1] (setting [9]), 10 to 100 nM in test [2] (setting [7]) and 100 to 1000 nM in test [5] (setting [8]). The compound also registered an EC90 in test [6] of 100 to 1000 nM. Moreover, the EC50 in test [6] lay within 10 to 100 nM.

For the compound `C=CC(=O)NC[C@H](NC(=O)OC(C)(C)C)C(=O)N1C[C@H](Oc2nccc3ccccc23)C[C@H]1C(=O)N[C@]1(C(=O)NS(=O)(=O)C2CC2)C[C@H]1C=C` [Compound I-97, {1-(Acryloylamino-methyl)-2-[2-(1-cyclopropanesulfonylaminocarbonyl-2-vinyl-cyclopropylcarbamoyl)-4-(isoquinolin-1-yloxy)-pyrrolidin-1-yl]-2-oxo-ethyl}-carbamic acid tert-butyl ester], the IC50 in test [1] (setting [9]) was less than 10 nM; in test [2] (read-out: IC50_APP, HCV R155K; apparent IC50, R155K mutant), 100 to 1000 nM; in test [5] (read-out: IC50_APP, HCV D168A; apparent IC50, D168A mutant) it was 100 to 1000 nM. The compound further returned an EC90 in test [6] of 100 to 1000 nM. The compound also registered an EC50 in test [6] of 100 to 1000 nM.

Regarding `C=CC(=O)N(C)C[C@H](NC(=O)OC(C)(C)C)C(=O)N1C[C@H](Oc2nccc3ccccc23)C[C@H]1C(=O)N[C@]1(C(=O)NS(=O)(=O)C2CC2)C[C@H]1C=C` [Compound I-98, {1-[(Acryloyl-methyl-amino)-methyl]-2-[2-(1-cyclopropanesulfonylaminocarbonyl-2-vinyl-cyclopropylcarbamoyl)-4-(isoquinolin-1-yloxy)-pyrrolidin-1-yl]-2-oxo-ethyl}-carbamic acid tert-butyl ester], the IC50 in test [1] (setting [9]) was 10 to 100 nM; in test [2] (setting [7]) it was 100 to 1000 nM; in test [5] (setting [8]) it was 100 to 1000 nM. The EC90 in test [6] fell in the range of 100 to 1000 nM. This compound registered a half-maximal effective concentration (EC50) in test [6] of 10 to 100 nM.

As to `C=CCN(C[C@H](NC(=O)OC(C)(C)C)C(=O)N1C[C@H](Oc2nccc3cc(OC)ccc23)C[C@H]1C(=O)N[C@]1(C(=O)NS(=O)(=O)C2CC2)C[C@H]1C=C)C(=O)C=C` [Compound I-99, {1-[(Acryloyl-allyl-amino)-methyl]-2-[2-(1-cyclopropanesulfonylaminocarbonyl-2-vinyl-cyclopropylcarbamoyl)-4-(6-methoxy-isoquinolin-1-yloxy)-pyrrolidin-1-yl]-2-oxo-ethyl}-carbamic acid tert-butyl ester], the IC50 in test [1] (setting [9]) is less than 10 nM; in test [2] (setting [7]), 100 to 1000 nM; in test [5] (setting [8]) it was 1000 to 10000 nM. In test [6], this compound came in with an EC50 of 10 to 100 nM.

Regarding `C=CC(=O)N[C@H](C)C(=O)N1C[C@H](Oc2nccc3cc(OC)ccc23)C[C@H]1C(=O)N[C@]1(C(=O)NS(=O)(=O)C2CC2)C[C@H]1C=C` [Compound I-100], the IC50 in test [1] (setting [9]) is less than 10 nM; in test [2] (setting [7]), less than 10 nM; in test [5] (setting [8]), 10 to 100 nM. The EC50 in test [6] lay within 10 to 100 nM.

Turning to `C=CC(=O)N[C@@H](C(=O)N1C[C@H](Oc2nccc3cc(OC)ccc23)C[C@H]1C(=O)N[C@]1(C(=O)NS(=O)(=O)C2CC2)C[C@H]1C=C)C(C)C` [Compound I-101], the IC50 in test [1] (setting [9]) was less than 10 nM; in test [2] (setting [7]) it was 10 to 100 nM; in test [5] (setting [8]) it was 100 to 1000 nM. Moreover, in test [6], the EC50 lay in the range of 10 to 100 nM.

With `C=C[C@@H]1C[C@]1(NC(=O)[C@@H]1C[C@@H]2CN1C(=O)[C@H](CCC(=O)C=C(C)C)NC(=O)OCCC/C=C/c1ccc3ccnc(c3c1)O2)C(=O)NS(=O)(=O)C1CC1` [Compound I-102], the IC50 in test [1] is less than 10 nM; in test [2] (setting [7]), 10 to 100 nM; in test [5] (setting [8]), 1000 to 10000 nM. In test [6], the EC90 was in the range of 10 to 100 nM. The same compound registered an EC50 in test [6] of less than 10 nM.

As for `CC[C@@H]1C[C@]1(NC(=O)[C@@H]1C[C@@H](Oc2nccc3cc(OC)ccc23)CN1C(=O)[C@H](CCC(=O)C=C(C)C)NC(=O)OC(C)(C)C)C(=O)NS(=O)(=O)C1CC1` [Compound I-114], the IC50 in test [1] (setting [9]) is less than 10 nM; in test [2] (setting [7]), 100 to 1000 nM. This compound registered an EC50 in test [6] of 10 to 100 nM.

For `C=C[C@@H]1C[C@]1(NC(=O)[C@@H]1C[C@@H](Oc2nccc3cc(OC)ccc23)CN1C(=O)[C@H](CC(=O)C=C(C)C)NC(=O)OC(C)(C)C)C(=O)NS(=O)(=O)C1CC1` [Compound I-129], the results for the IC50 in test [1] (setting [9]), in test [2] (setting [7]) and in test [5] (setting [8]) were less than 10 nM, 10 to 100 nM and 100 to 1000 nM, respectively. The compound also gave an EC50 in test [6] of less than 10 nM.

As for `C=CC(=O)N[C@@H](C(=O)N1C[C@H](Oc2nccc3cc(OC)ccc23)C[C@H]1C(=O)N[C@]1(C(=O)NS(=O)(=O)C2CC2)C[C@H]1C=C)C(C)(C)O` [Compound I-130], the IC50 in test [1] (setting [9]) is 10 to 100 nM; in test [5] (setting [8]), 100 to 1000 nM. This compound also showed an EC50 in test [6] of 100 to 1000 nM.

For the origin of these results see patent US8309685B2 (Celgene Avilomics Research, Inc., priority 2007, dated 2012).
